From patent US20100092443A1, “NOVEL COMBINATIONS OF NITROGENATED HETEROCYCLIC ANTIBACTERIAL COMPOUNDS WITH OTHER ANTIBACTERIAL COMPOUNDS AND THE USE OF SAME AS DRUGS” (priority 2008, published 2010)
Counter-ions that a name gives are not always drawn.

What was measured:
Type in all cases: cell-based
K. pneumoniae = experiment: MIC, dilutions in liquid medium, alone and combined with NXL105
Experimental: (§1) In vitro activity, method of dilutions in liquid medium:
(§2) A series of test 96-well microtiter plates are prepared in which the same quantity of sterile nutritive medium is distributed. […] After 24 h of incubation in a 37° C. oven, growth inhibition is evaluated by transillumination, which makes it possible to determine the minimum inhibitory concentrations (MICS) expressed in μg/ml.

E. cloacae = experiment: as above
Experimental: as §1, §2

E. coli = experiment: microbe, parasite or virus in culture
Experimental: as §1, §2

C. freundii = experiment: MIC, dilutions in liquid medium, alone and combined with NXL105
K. oxytoca = experiment: as above
Pseudomonas aeruginosa = experiment: as above
Experimental: as §1
A series of test 96-well microtiter plates are prepared in which the same quantity of sterile nutritive medium is distributed. Increasing quantities of the compound to be studied, namely the antibacterial compound alone and the inventive combination with the compound of formula (I) of example 1, are distributed in each plate in the respective proportions 2:1 and 4:1, and then each plate is inoculated with a bacterial strain of Pseudomonas aeruginosa. After 24 h of incubation in a 37° C. oven, growth inhibition is evaluated by transillumination, which makes it possible to determine the minimum inhibitory concentrations (MICS) expressed in μg/ml.

For Cn1ncc2c1[C@@H](CN)N1C[C@H]2N(OS(=O)(=O)O)C1=O (relative stereo) [NXL105, Sodium and Trifluoroacetate Salts of trans 8-(aminomethyl)-4,8-dihydro-1-methyl-5-(sulphooxy)-4,7-methano-7H-pyrazolo[3,4-e][1,3]diazepin-6(5H)-one], the MIC (K. pneumoniae; K. pneumoniae 26, SHV-5) was 32 µg/mL, the MIC (K. pneumoniae; K. pneumoniae 60, SHV-2 + TEM-2 + PER) was 32 µg/mL and the MIC (K. pneumoniae; K. pneumoniae 157, SHV-5 + TEM-26) was greater than 32 µg/mL. The MIC (K. pneumoniae; K. pneumoniae 181, SHV-5 + TEM-10) was greater than 32 µg/mL, the MIC (K. pneumoniae; K. pneumoniae 236, SHV-5 + TEM-10) was greater than 32 µg/mL and the MIC (K. pneumoniae; K. pneumoniae 238, SHV-2 + TEM-12 + CTX-M-2) was greater than 32 µg/mL. It also gave an MIC (K. pneumoniae; K. pneumoniae 243, SHV-5 + TEM-63) greater than 32 µg/mL, an MIC (K. pneumoniae; K. pneumoniae 253, SHV-2 + TEM-12 + CTX-M-2) greater than 32 µg/mL and an MIC (K. pneumoniae; K. pneumoniae 427, SHV-1 + TEM-1B + CTX-M-3) greater than 32 µg/mL. The MIC (K. pneumoniae; K. pneumoniae 441, SHV-1 + TEM-2 + PER) was greater than 32 µg/mL, the MIC (K. pneumoniae; K. pneumoniae 444, SHV-5 + TEM-2 + PER) was greater than 32 µg/mL and the MIC (K. pneumoniae; K. pneumoniae 449, SHV-1 + TEM-2 + PER) was 32 µg/mL. For the same molecule, the MIC (K. pneumoniae; K. pneumoniae 465, TEM-1B + CTX-M-2) was greater than 32 µg/mL, the MIC (K. pneumoniae; K. pneumoniae 1734, FOX-3 + TEM-1) was greater than 32 µg/mL and the MIC (K. pneumoniae; K. pneumoniae 9701, CMY-4 + TEM-1) was greater than 32 µg/mL. It also gave an MIC (K. pneumoniae; K. pneumoniae ATCC 700603, SHV-18) greater than 32 µg/mL, an MIC (K. pneumoniae; K. pneumoniae CL5761, KPC-3) greater than 32 µg/mL and an MIC (K. pneumoniae; K. pneumoniae CL5762, KPC-3) greater than 32 µg/mL. The MIC (K. pneumoniae; K. pneumoniae CL5763, KPC-3) was greater than 32 µg/mL, the MIC (K. pneumoniae; K. pneumoniae KOL, MOX-2 + SHV-5 + TEM-1) was greater than 32 µg/mL and the MIC (K. pneumoniae; K. pneumoniae KP04, CTX-M-14) was greater than 32 µg/mL. It also gave an MIC (K. pneumoniae; K. pneumoniae Patient 1BHR, VIM-4 + CTX-M-15 = CMY-4 + TEM-1) of 16 µg/mL, an MIC (K. pneumoniae; K. pneumoniae Patient F, VIM-1 + SHV-5) greater than 32 µg/mL and an MIC (K. pneumoniae; K. pneumoniae SLK54, ACC-1 + TEM-1) greater than 32 µg/mL. The MIC (K. pneumoniae; K. pneumoniae TN58467, DHA-1 + SHV-2a + TEM-1) was greater than 32 µg/mL, the MIC (K. pneumoniae; K. pneumoniae Tunisie clone K1, CTX-M-16 + OXA-1) was greater than 32 µg/mL and the MIC (K. pneumoniae; K. pneumoniae Tunisie clone K4, CTX-M-15 + TEM-1 + OXA-1) was 16 µg/mL. It also gave an MIC (K. pneumoniae; K. pneumoniae VA8, KPC-3) greater than 32 µg/mL, an MIC (K. pneumoniae; K. pneumoniae VAKP, KPC-2) greater than 32 µg/mL and an MIC (K. pneumoniae; K. pneumoniae YC, KPC-2) greater than 32 µg/mL. It also gave an MIC (E. cloacae; E. cloacae 7506, KPC-2 + TEM-1 + KLUC-2) of 32 µg/mL, an MIC (E. cloacae; E. cloacae (no alias), AmpC) of 32 µg/mL and an MIC (E. cloacae; E. cloacae, AmpC) greater than 32 µg/mL. It also gave an MIC (E. coli; E. coli 2138, KPC-2 + TEM-1) greater than 32 µg/mL, an MIC (E. coli; E. coli (no alias), CTX-M-15 + TEM-1 + OXA-1) greater than 32 µg/mL and an MIC (E. coli; E. coli (no alias), Cephalosporinase) greater than 32 µg/mL. It also gave an MIC (E. coli; E. coli (no alias), SHV-4) greater than 32 µg/mL, an MIC (E. coli; E. coli (no alias), TEM-3) greater than 32 µg/mL and an MIC (E. coli; E. coli IND, VEB-1 + CMY-2) of 16 µg/mL. The MIC (E. coli; E. coli TN06, CTX-M-2 + TEM-1) was 32 µg/mL, the MIC (E. coli; E. coli TN13, CTX-M-14 + CMY-2 + TEM-1) was 32 µg/mL and the MIC (E. coli; E. coli Tunisie clone E4, CTX-M-16 + TEM-1) was greater than 32 µg/mL. For the same molecule, the MIC (C. freundii; C. freundii (no alias), AmpC + TEM-1) was 16 µg/mL, the MIC (C. freundii; C. freundii (no alias, table row r121), AmpC) was 16 µg/mL and the MIC (C. freundii; C. freundii (no alias, table row r122), AmpC) was 32 µg/mL. It also gave an MIC (C. freundii; C. freundii (no alias, table row r123), AmpC) greater than 32 µg/mL, an MIC (C. freundii; C. freundii (no alias, table row r125), AmpC) of 32 µg/mL and an MIC (K. oxytoca; K. oxytoca 1431, TEM-129) of 32 µg/mL. The MIC (K. oxytoca; K. oxytoca 16944, OXY-2, TEM-1) was greater than 32 µg/mL, the MIC (Pseudomonas aeruginosa; P. aeruginosa 391HG2) was 1.000 µg/mL and the MIC (Pseudomonas aeruginosa; P. aeruginosa 391HG21) was 0.500 µg/mL. For the same molecule, the MIC (Pseudomonas aeruginosa; P. aeruginosa 391HG38) was 32.000 µg/mL, the MIC (Pseudomonas aeruginosa; P. aeruginosa 391HG39) was 4.000 µg/mL and the MIC (Pseudomonas aeruginosa; P. aeruginosa 391HG58) was 1.000 µg/mL. It also gave an MIC (Pseudomonas aeruginosa; P. aeruginosa 391HG118) of 0.125 µg/mL, an MIC (Pseudomonas aeruginosa; P. aeruginosa 391HG123) greater than 32 µg/mL and an MIC (Pseudomonas aeruginosa; P. aeruginosa 391HG158) of 32.000 µg/mL. The MIC (Pseudomonas aeruginosa; P. aeruginosa 391HG271) was 32.000 µg/mL, the MIC (Pseudomonas aeruginosa; P. aeruginosa 391HG329) was 2.000 µg/mL and the MIC (Pseudomonas aeruginosa; P. aeruginosa 391K767) was 1.000 µg/mL. It also gave an MIC (Pseudomonas aeruginosa; P. aeruginosa 391K1455) of 2.000 µg/mL, an MIC (Pseudomonas aeruginosa; P. aeruginosa 391K1523) of 2.000 µg/mL and an MIC (Pseudomonas aeruginosa; P. aeruginosa 391K1525) of 4.000 µg/mL. For the same molecule, the MIC (Pseudomonas aeruginosa; P. aeruginosa 391K1536) was 2.000 µg/mL, the MIC (Pseudomonas aeruginosa; P. aeruginosa 391K2376) was 2.000 µg/mL and the MIC (Pseudomonas aeruginosa; P. aeruginosa 391K2379) was 4.000 µg/mL. The MIC (Pseudomonas aeruginosa; P. aeruginosa 391K2415) was 2.000 µg/mL, the MIC (Pseudomonas aeruginosa; P. aeruginosa 391KB9) was 0.250 µg/mL and the MIC (Pseudomonas aeruginosa; P. aeruginosa 391KB14) was 1.000 µg/mL. It also gave an MIC (Pseudomonas aeruginosa; P. aeruginosa 391KB21) of 2.000 µg/mL, an MIC (Pseudomonas aeruginosa; P. aeruginosa 391KB33) of 0.500 µg/mL and an MIC (Pseudomonas aeruginosa; P. aeruginosa 391KB38) of 1.000 µg/mL. The MIC (Pseudomonas aeruginosa; P. aeruginosa 391KB62) was 4.000 µg/mL, the MIC (Pseudomonas aeruginosa; P. aeruginosa 391KB68) was 0.500 µg/mL and the MIC (Pseudomonas aeruginosa; P. aeruginosa 391KB90) was 8.000 µg/mL. For the same molecule, the MIC (Pseudomonas aeruginosa; P. aeruginosa 391KB91) was 0.500 µg/mL, the MIC (Pseudomonas aeruginosa; P. aeruginosa 391KB99) was 0.500 µg/mL and the MIC (Pseudomonas aeruginosa; P. aeruginosa 391KB103) was 0.500 µg/mL. For the same molecule, the MIC (Pseudomonas aeruginosa; P. aeruginosa 391KB105) was 1.000 µg/mL, the MIC (Pseudomonas aeruginosa; P. aeruginosa 391KB106) was 2.000 µg/mL and the MIC (Pseudomonas aeruginosa; P. aeruginosa 391KB107) was 1.000 µg/mL. For the same molecule, the MIC (Pseudomonas aeruginosa; P. aeruginosa 391KB114) was 4.000 µg/mL, the MIC (Pseudomonas aeruginosa; P. aeruginosa 391KB127) was 0.500 µg/mL and the MIC (Pseudomonas aeruginosa; P. aeruginosa 391KB135) was 1.000 µg/mL. It also gave an MIC (Pseudomonas aeruginosa; P. aeruginosa 391KB136) of 0.500 µg/mL, an MIC (Pseudomonas aeruginosa; P. aeruginosa 391KB137) of 0.500 µg/mL and an MIC (Pseudomonas aeruginosa; P. aeruginosa 391KB138) of 0.500 µg/mL. It also gave an MIC (Pseudomonas aeruginosa; P. aeruginosa 391KB139) of 2.000 µg/mL, an MIC (Pseudomonas aeruginosa; P. aeruginosa 391KB140) of 2.000 µg/mL and an MIC (Pseudomonas aeruginosa; P. aeruginosa 391KB141) of 4.000 µg/mL. For the same molecule, the MIC (Pseudomonas aeruginosa; P. aeruginosa 391KB142) was 1.000 µg/mL, the MIC (Pseudomonas aeruginosa; P. aeruginosa 391KB143) was 0.500 µg/mL and the MIC (Pseudomonas aeruginosa; P. aeruginosa 391KB144) was 16.000 µg/mL. The MIC (Pseudomonas aeruginosa; P. aeruginosa 391QBR2) was greater than 32 µg/mL, the MIC (Pseudomonas aeruginosa; P. aeruginosa 391QBR3) was 2.000 µg/mL and the MIC (Pseudomonas aeruginosa; P. aeruginosa 391QBR4) was 2.000 µg/mL. The MIC (Pseudomonas aeruginosa; P. aeruginosa 391QBR5) was 1.000 µg/mL, the MIC (Pseudomonas aeruginosa; P. aeruginosa 391QBR7) was 2.000 µg/mL and the MIC (Pseudomonas aeruginosa; P. aeruginosa 391QBR8) was 2.000 µg/mL. The MIC (Pseudomonas aeruginosa; P. aeruginosa 391QBR9) was 2.000 µg/mL, the MIC (Pseudomonas aeruginosa; P. aeruginosa 391QBR10) was 4.000 µg/mL and the MIC (Pseudomonas aeruginosa; P. aeruginosa ATCC 27853) was 0.060 µg/mL. For the same molecule, the MIC (Pseudomonas aeruginosa; P. aeruginosa C3719) was greater than 32 µg/mL and the MIC (Pseudomonas aeruginosa; P. aeruginosa PA2192) was 0.125 µg/mL.
